Legend:
[1] = target: GII.4 Saga P dimer (Norovirus GII.4 (human norovirus), UniProt B5BTR7); assay: Native MS, specific glycan binding to P dimer after reference protein correction; set-up: species or system human norovirus (hNoV)
Protocol: (§1) Prior to MS analysis, purified P dimers were buffer exchanged to 150 mM ammonium acetate (Sigma-Aldrich, reagent grade ≥98%) at pH 7 via centrifugal filter units at 12,000× g at 4 °C (Vivaspin 500, MWCO 10000, Sartorius). Glycans for native MS analysis were mixed with 1 µM (per monomer) purified GII.4 Saga P dimer and 3 µM of the reference proteins at indicated concentrations. Native mass spectra were measured at room temperature in positive ion mode on a high mass modified LCT Premier mass spectrometer (Waters/Micromass, UK and MS Vision, the Netherlands) with a nano-ESI source. In house-made gold-coated electrospray capillaries were used for direct-sample infusion without any accessory chromatographic separation. The voltages and pressures were optimized for non-covalent protein complexes. The gas pressure used in the source hexapole was set between 6.5 and 6.8 × 10^−2 mbar argon optimized for minimal complex dissociation and the backing pressure of the source roughing pump was set between 7.0 and 8.5 mbar. Spectra were recorded with applied voltages for the capillary and cone of 1.20 kV and 240 V, respectively. Note that charge state distributions for P dimers were sometimes slightly shifted as was the degree of glycan clustering per charge state. These changes were highly variable and not quantifiable.
(§2) For calibration of the raw data, a 25 mg/mL cesium iodide spectrum from the same day was used. MassLynx V4.1 (Waters, Manchester, UK) was used to assign peak series to protein species and to determine the mass after minimal smoothing. Furthermore, OriginPro 2016 SR2 (OriginLab, Northampton, MA, USA) was used for spectral deconvolution and curve fitting. Correction for nonspecific protein-ligand clustering was performed as described. Corrected peak areas were averaged and normalized to the free-protein signal. Data were based on at least three independent measurements. Python code Panda and Numpy package were used to calculate the specific binding of P dimers according to the glycan clustering ratio obtained from the selected reference protein candidates. Seaborn and matplotlib.pyplot package were imported into a python script to plot the results. The module of sklearn.linear model was applied for linear regression. The matplotlib and heatmap package were used to plot the heatmap.
Data from native ESI MS measurements were translated into dissociation constants (KD values). The detailed calculations were based on the equations listed below. A protein (P) and a glycan ligand (L) form a complex through non-covalent interactions leading to a reversible association described by (Equation (1)):(1) P+L⇌PL when equilibrium is reached, the KD can be calculated directly from the concentrations via the law of mass action (Equation (2)):(2) KD=[Pfree][Lfree]/[PL]
(§3) Theoretically, the KD is calculated by measuring the concentration of the three components (Pfree, Lfree, PL) in solution. Usually, these values are only indirectly accessible because they require ligand titration up to binding saturation. However, native MS allows for the directly measurement of Pfree and PL, from which Lfree can be calculated using the input concentrations. In the present work, the non-covalent interaction was measured in the gas phase assuming identical ESI and detection efficiency for free and glycan-associated proteins, both for the analyte and the reference protein. […] For P dimers, the equations reflect glycan binding to the individual monomers assuming that binding sites on each monomer are equal and independent.
Using R described in Equation (3), the KD calculation can be re-written into Equation (4) with the known initial concentration of glycan ligand [L0] and protein [P0], adapted from Sun et al.:(3) R=PLequil∕Pequil=∑nA(PL^n+)∕n∕∑nA(P^n+)∕n (4) KD =L0−RP0/1+R/R […]

[2] = target: T1, ubiquitin from bovine erythrocytes (Ubq) (Bos taurus, UniProt P0CG53); assay: Native MS glycan clustering to reference protein Ubq; format: binding; conditions: on Ubq
T1 construct: ubiquitin from bovine erythrocytes (Ubq, CAS number 75986-22-4); purchased Sigma-Aldrich (Merck, Germany); host or cells: bovine erythrocytes
Protocol: as §1, §2, §3
(§4) Using R described in Equation (3), the KD calculation can be re-written into Equation (4) with the known initial concentration of glycan ligand [L0] and protein [P0], adapted from Sun et al.:(3) R=PLequil∕Pequil=∑nA(PL^n+)∕n∕∑nA(P^n+)∕n (4) KD =L0−RP0/1+R/R
(§5) For the carbohydrate-binding experiments, it was essential to keep the initial protein concentrations and pH value constant during the analysis of the protein-carbohydrate solutions. While acidification occurs in any ESI droplet, the remaining solution in the capillary changes pH over time. Therefore, accumulated spectra were obtained within 10 min after the voltages were applied to minimize the influence of pH changes during the measurements. […]

[3] = target: T2, myoglobin from equine heart (Myo) (Equus caballus, UniProt P68082); assay: Native MS glycan clustering to reference protein Myo; format: binding; conditions: on Myo
T2 construct: myoglobin from equine heart (Myo, CAS number 100684-32-0); purchased Sigma-Aldrich (Merck, Germany); host or cells: equine heart
T2 sequence (P68082 whole entry): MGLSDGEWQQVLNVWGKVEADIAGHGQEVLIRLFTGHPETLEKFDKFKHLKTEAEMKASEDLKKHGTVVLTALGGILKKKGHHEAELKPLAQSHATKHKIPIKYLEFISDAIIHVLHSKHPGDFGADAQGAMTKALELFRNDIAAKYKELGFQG
Protocol: as §1, §2, §3, §4, §5

[4] = target: T3, cytochrome c from equine heart (cyt c) (Equus caballus, UniProt P00004); assay: Native MS glycan clustering to reference protein cyt c; format: binding; conditions: on Cyt c
T3 construct: cytochrome c from equine heart (cyt c, CAS number 9007-43-6); purchased Sigma-Aldrich (Merck, Germany); host or cells: equine heart
T3 sequence (P00004 whole entry): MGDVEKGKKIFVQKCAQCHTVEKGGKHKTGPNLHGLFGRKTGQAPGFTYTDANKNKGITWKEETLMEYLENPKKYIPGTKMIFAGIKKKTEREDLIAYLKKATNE
Protocol: as §1, §2, §3, §4, §5

## CC(=O)N[C@H]1[C@@H](O[C@H]2[C@@H](O)[C@@H](CO)O[C@@H](O[C@H]3[C@H](O)[C@@H](CO)OC(O)[C@@H]3NC(C)=O)[C@@H]2O[C@@H]2O[C@@H](C)[C@@H](O)[C@@H](O)[C@@H]2O)O[C@H](CO)[C@H](O)[C@@H]1O (stereo partly shown) [HBGA A, GalNAcα1-3(Fucα-2)Galβ1-3GlcNAc]
[1]; ref. protein ADH, glycan 100 µM
  Bound number of carbohydrates on Saga P dimer: 0
[1]; ref. protein ADH, glycan 200 µM
  Bound number of carbohydrates on Saga P dimer: 0
[1]; ref. protein ADH, glycan 300 µM
  Bound number of carbohydrates on Saga P dimer: 0
[1]; ref. protein ADH, glycan 400 µM
  Bound number of carbohydrates on Saga P dimer: 0
[1]; ref. protein ADH, glycan 500 µM
  Bound number of carbohydrates on Saga P dimer: 0
[1]; ref. protein CA, glycan 100 µM
  Bound number of carbohydrates on Saga P dimer: 1
[1]; ref. protein CA, glycan 200 µM
  Bound number of carbohydrates on Saga P dimer: 1
[1]; ref. protein CA, glycan 300 µM
  Bound number of carbohydrates on Saga P dimer: 1
[1]; ref. protein CA, glycan 400 µM
  Bound number of carbohydrates on Saga P dimer: 1
[1]; ref. protein CA, glycan 500 µM
  Bound number of carbohydrates on Saga P dimer: 1
[1]; ref. protein Cyto c, glycan 100 µM
  Bound number of carbohydrates on Saga P dimer: 2
[1]; ref. protein Cyto c, glycan 200 µM
  Bound number of carbohydrates on Saga P dimer: 3
[1]; ref. protein Cyto c, glycan 300 µM
  Bound number of carbohydrates on Saga P dimer: 3
[1]; ref. protein Cyto c, glycan 400 µM
  Bound number of carbohydrates on Saga P dimer: 4
[1]; ref. protein Cyto c, glycan 500 µM
  Bound number of carbohydrates on Saga P dimer: 4
[1]; ref. protein GFP, glycan 100 µM
  Bound number of carbohydrates on Saga P dimer: 1
[1]; ref. protein GFP, glycan 200 µM
  Bound number of carbohydrates on Saga P dimer: 1
[1]; ref. protein GFP, glycan 300 µM
  Bound number of carbohydrates on Saga P dimer: 1
[1]; ref. protein GFP, glycan 400 µM
  Bound number of carbohydrates on Saga P dimer: 1
[1]; ref. protein GFP, glycan 500 µM
  Bound number of carbohydrates on Saga P dimer: 1
[1]; ref. protein LDH, glycan 100 µM
  Bound number of carbohydrates on Saga P dimer: 0
[1]; ref. protein LDH, glycan 200 µM
  Bound number of carbohydrates on Saga P dimer: 0
[1]; ref. protein LDH, glycan 300 µM
  Bound number of carbohydrates on Saga P dimer: 0
[1]; ref. protein LDH, glycan 400 µM
  Bound number of carbohydrates on Saga P dimer: 0
[1]; ref. protein LDH, glycan 500 µM
  Bound number of carbohydrates on Saga P dimer: 1
[1]; ref. protein Myo, glycan 100 µM
  Bound number of carbohydrates on Saga P dimer: 2
[1]; ref. protein Myo, glycan 200 µM
  Bound number of carbohydrates on Saga P dimer: 3
[1]; ref. protein Myo, glycan 300 µM
  Bound number of carbohydrates on Saga P dimer: 3
[1]; ref. protein Myo, glycan 400 µM
  Bound number of carbohydrates on Saga P dimer: 3
[1]; ref. protein Myo, glycan 500 µM
  Bound number of carbohydrates on Saga P dimer: 4
[1]; ref. protein Ubq, glycan 100 µM
  Bound number of carbohydrates on Saga P dimer: 2
[1]; ref. protein Ubq, glycan 200 µM
  Bound number of carbohydrates on Saga P dimer: 3
[1]; ref. protein Ubq, glycan 300 µM
  Bound number of carbohydrates on Saga P dimer: 4
[1]; ref. protein Ubq, glycan 400 µM
  Bound number of carbohydrates on Saga P dimer: 4
[1]; ref. protein Ubq, glycan 500 µM
  Bound number of carbohydrates on Saga P dimer: 4
[1]; ref. protein apo-TFF, glycan 100 µM
  Bound number of carbohydrates on Saga P dimer: 0
[1]; ref. protein apo-TFF, glycan 200 µM
  Bound number of carbohydrates on Saga P dimer: 0
[1]; ref. protein apo-TFF, glycan 300 µM
  Bound number of carbohydrates on Saga P dimer: 1
[1]; ref. protein apo-TFF, glycan 400 µM
  Bound number of carbohydrates on Saga P dimer: 1
[1]; ref. protein apo-TFF, glycan 500 µM
  Bound number of carbohydrates on Saga P dimer: 1
[2]; 100 µM glycan
  Glycan-Clustering Ratio R: 0.06±0.03
[2]; 200 µM glycan
  Glycan-Clustering Ratio R: 0.04±0.01
[2]; 300 µM glycan
  Glycan-Clustering Ratio R: 0.13±0.01
[2]; 400 µM glycan
  Glycan-Clustering Ratio R: 0.18±0.01
[2]; 500 µM glycan
  Glycan-Clustering Ratio R: 0.10 ± 0.05
[3]; 100 µM glycan
  Glycan-Clustering Ratio R: 0.13±0.03
[3]; 200 µM glycan
  Glycan-Clustering Ratio R: 0.16±0.03
[3]; 300 µM glycan
  Glycan-Clustering Ratio R: 0.22±0.03
[3]; 400 µM glycan
  Glycan-Clustering Ratio R: 0.29±0.04
[3]; 500 µM glycan
  Glycan-Clustering Ratio R: 0.34 ± 0.03
[4]; 100 µM glycan
  Glycan-Clustering Ratio R: 0.18±0.03
[4]; 200 µM glycan
  Glycan-Clustering Ratio R: 0.16± 0.02
[4]; 300 µM glycan
  Glycan-Clustering Ratio R: 0.19± 0.03
[4]; 400 µM glycan
  Glycan-Clustering Ratio R: 0.27± 0.02
[4]; 500 µM glycan
  Glycan-Clustering Ratio R: 0.41 ± 0.09
